For the data set the following is noted: Liquid.

± gives the expanded uncertainty stated by the source.

Consider `COCC(C)OC(C)=O` (centres undefined) [1-methoxy-2-propyl acetate], for which the “vapor or sublimation pressure” value is listed as 26.7 ± 0.2 kPa (377.95 K); 40 ± 0.2 kPa (389.37 K); 53.3 ± 0.2 kPa (398.01 K); 66.7 ± 0.2 kPa (405.04 K); 80 ± 0.2 kPa (411.02 K); 93.3 ± 0.3 kPa (416.25 K). For the same compound, where the note is “418.18 K”, the “vapor or sublimation pressure” value is reported as 98.7 ± 0.3 kPa.
For the compound `COCC(C)O` (centres undefined) [1-methoxy-2-propanol], the “vapor or sublimation pressure” value (355.83 K) stood at 26.7 ± 0.2 kPa; the “vapor or sublimation pressure” value (365.99 K) came out at 40 ± 0.2 kPa; the “vapor or sublimation pressure” value (373.87 K) was determined as 53.3 ± 0.2 kPa; the “vapor or sublimation pressure” value (380.27 K) was 66.7 ± 0.2 kPa; the “vapor or sublimation pressure” value (385.71 K) turned out to be 80 ± 0.2 kPa; the “vapor or sublimation pressure” value (390.45 K) came out at 93.3 ± 0.3 kPa. For the same compound, the “vapor or sublimation pressure” value (392.2 K) amounted to 98.7 ± 0.3 kPa.

(Values after the NIST ThermoML archive (doi:10.1016/j.fluid.2007.06.006).)
